3 compounds from doi:10.1101/2021.08.27.457891v1, “Optical Control of Invertebrate nAChR and Behaviors with Dithienylethene-Imidacloprid” (biorxiv, 2021) can be followed below.

Assay [1] deals with T1, Musca nAChR; housefly (Musca domestica) nAChR.
T1 construct: gene nAChRalpha1; pentameric channel
Briefly: [3H]NMI radioligand displacement. The settings on record: competition with [3H]NMI. The format is binding.

Assay [2] has as its target T2, cockroach nAChRs; cockroach nAChR membranes.
T2 construct: gene nAChRalpha1; pentameric channel
Briefly: fluorescence polarization saturation binding. More on the design: species or system Periplaneta americana. The settings on record: DitIMI irradiated at 320 nm for 15 min (photostationary mixture, 67% closed form); 227 mg/L membranes; 22 °C, 1 h. (In general: In fluorescence polarisation assays a small probe gives low polarisation when free and higher when bound to something large.)

Structures are written as SMILES. pIC50, pKd: −log10 of the molar value.

Consider `O=[N+]([O-])N=C1NCCN1Cc1ccc(Cl)nc1` [IMI], for which the pIC50 (usually −log10 of the IC50, conventionally taken in molar units) in assay [1] is 7.54.

For `CC12SC(CN3CCN(Cc4ccc(Cl)nc4)C3=N[N+](=O)[O-])=CC1=C1C(=C3C=C(CN4CCN(Cc5ccc(Cl)nc5)C4=N[N+](=O)[O-])SC32C)C(F)(F)C(F)(F)C1(F)F` (stereo not shown) [closed-DitIMI], the pIC50 in assay [1] (after UV illumination, photostationary mixture (67% closed form)) is 7.48. In assay [2], the negative-log Kd (pKd) (in general, −log10 of the Kd, conventionally taken in molar units) was 7.87.

For `Cc1sc(CN2CCN(Cc3ccc(Cl)nc3)C2=N[N+](=O)[O-])cc1C1=C(c2cc(CN3CCN(Cc4ccc(Cl)nc4)C3=N[N+](=O)[O-])sc2C)C(F)(F)C(F)(F)C1(F)F` [open-DitIMI], the pIC50 in assay [1] (unirradiated open form) was 6.05.
